This is an account of results in BindingDB's records for doi:10.1016/j.bmcl.2003.11.082 (Cubist Pharmaceuticals, 2004).

Broadly, the IC50 is the midpoint of a concentration-inhibition curve. Low values mean greater potency in that assay, high ones weaker potency in that assay.

Structures are written as SMILES.

Experiment [1] addresses Phenylalanine--tRNA ligase (Escherichia coli). Put plainly: Compound was evaluated for the inhibitory activity against Escherichia coli phenylalanyl-tRNA synthetase.
The target in experiment [2] is Phenylalanine--tRNA ligase (Staphylococcus aureus). Put plainly: Compound was evaluated for the inhibitory activity against Staphylococcus aureus phenylalanyl-tRNA synthetase.

As to `O=C(Nc1ccc(Cl)c(Cl)c1)[C@H]1[C@@H](C(=O)O)C2(O[C@H]1c1ccccc1)C(=O)c1ccccc1C2=O` [4-(3,4-dichlorophenylcarbamoyl)-1',3'-dioxo-5-phenylspiro[tetrahydrofuran-2,2'-(2',3'-dihydro-1'H-indene)]-3-carboxylic acid], the values for the IC50 in experiment [1] and in experiment [2] were 11 µM and 33 µM, respectively.
